As usually defined, the IC50 is the concentration at which inhibition is half-maximal.

This experiment addresses T1, GLUT1 (Homo sapiens, UniProt P11166).
T1 construct: expressed in transfected cells; host or cells: Saccharomyces cerevisiae hxt0 strain EBY.S7 (fgy1)
T1 sequence (P11166 1-492): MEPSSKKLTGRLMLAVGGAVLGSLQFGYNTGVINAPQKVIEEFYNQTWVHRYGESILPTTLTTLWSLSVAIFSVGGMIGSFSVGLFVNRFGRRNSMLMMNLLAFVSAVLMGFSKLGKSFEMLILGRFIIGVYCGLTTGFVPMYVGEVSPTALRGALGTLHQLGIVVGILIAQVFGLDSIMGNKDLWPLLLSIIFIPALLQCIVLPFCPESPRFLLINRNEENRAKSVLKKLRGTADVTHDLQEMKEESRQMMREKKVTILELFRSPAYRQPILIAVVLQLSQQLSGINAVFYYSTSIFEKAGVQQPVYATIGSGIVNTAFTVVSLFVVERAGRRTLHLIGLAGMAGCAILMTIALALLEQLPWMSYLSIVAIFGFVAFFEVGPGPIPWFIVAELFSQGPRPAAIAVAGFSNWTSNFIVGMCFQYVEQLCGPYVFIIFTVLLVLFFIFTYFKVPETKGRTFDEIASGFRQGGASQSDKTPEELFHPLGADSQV
Nature of the experiment: Glucose transport assay, GLUT1 expressed in hxt^0 yeast cells EBY.S7. The conditions noted are these: read-out: IC50 for GLUT1 transport inhibition. Type of experiment: cell-based. From the text: The most studied GLUTs are Class 1 GLUTs (GLUT1-4) and a Class 2 GLUT, GLUT5 (a fructose-only transporter). GLUT3 sequence homology and identity is 79% and 64%, 71% and 52%, 74% and 57%, and 60% and 38% with GLUT1, GLUT2, GLUT4, and GLUT5, respectively. The hxt^0 yeast cell systems expressing functional GLUT1-4[65],[69] and GLUT5[66] allow us to determine the in vivo transport activity (substrate uptake by a GLUT into whole cells) for individual GLUTs and establish GLUT3 inhibitor selectivity for these transporters. […] Given the higher sequence similarity within Class 1 GLUTs, we expected GLUT3 inhibitors to affect Class 1 GLUTs much more than GLUT5. Indeed, G3iA-G3iF reduced the transport activities of some of the other Class 1 GLUTs (Fig. 3A–C, Table 2, Supplementary Fig. S6). […] For example, G3iB was an equipotent inhibitor of GLUT4, while G3iD and G3iE inhibited GLUT1 in a similar manner to GLUT3. […] Moreover, G3iD affected all Class 1 GLUTs, having the best relative selectivity for GLUT4.
Figure 3 Effect of GLUT3 inhibitors on GLUT1, GLUT2, GLUT4, and GLUT5. The transport activity was assayed as the substrate uptake in hexose transporter-deficient yeast cells expressing functional GLUT1[65], GLUT2[69], GLUT4[65], or GLUT5[66]. […] Transport assay was initiated by the addition of C^14-labeled substrate and stopped after 10 min (see “Materials and methods” for details). (A–D) Effect of G3iA-G3iF, at 50 µM concentration, on the relative transport activities of GLUT1 (A), GLUT2 (B), GLUT4 (C), and GLUT5 (D). Standard deviations for experimental points come from at least three independent measurements.
The plasmids containing functional constructs of GLUT1-5 were transformed in the corresponding hxt^0 strains[65],[66],[73] (EBY.VW4000 for GLUT5S72Y, EBY.S7 for GLUT1, GLUT2∆loopS_Q455R, GLUT3 and GLUT3S66Y, and SDY.022 for GLUT4) and grown on 2% (w/v) agar plates of the respective media supplemented with 1% (w/v) maltose. An initial culture of ~ 10 ml was started with a few colonies and grown for 2–3 days if the media was SC-uracil with 1% (w/v) maltose (GLUT1, GLUT3, GLUT4) or 1–2 days if the media was YEP with 1% (w/v) maltose and 100 µg/ml geneticin G418 (GLUT2∆loopS_Q455R and GLUT5S72Y). […] Then, cells were transferred in the same media so that OD600nm ~ 0.5 and grown further for 1–2 days.
For transport activity assay, cells in the hexose media were centrifuged (1000×g, 5 min, room temperature), washed once with PBS buffer (10 mM Na2HPO4, 1.8 mM KH2PO4, 2.7 mM KCl, 137 mM NaCl, pH 7.4), and resuspended in PBS buffer at an OD600nm ~ 10; each assay contained 100 µl of this cell solution. […] Substrate uptake into cells was linear for more than 20 min. […] The filtration membranes were transferred into scintillation vials with 10 ml of Scintillation Solution (BioSafeII; Research Products International, Mount Prospect, IL, USA), and vortexed briefly. The radioactivity was determined with a scintillation counter (Tri-carb 2900TR, Perkin Elmer, USA). As all compounds were solubilized in dimethyl sulfoxide (DMSO), controls for determining the relative transport activity included 1% (v/v) DMSO to represent DMSO used as vehicle control (i.e., 100% activity), and known inhibitors at saturating concentrations, 200 µM phloretin for GLUT1-4[69],[82], and 100 µM N-[4-(methylsulfonyl)-2-nitrophenyl]-1,3-benzodioxol-5-amine (MSNBA) for GLUT5 (i.e., complete inhibition). […] Data were analyzed with GraphPad Prism (San Diego, CA, USA).
Supplementary Figure S6. Dose response curves for GLUT3 inhibitors on the transport activities of GLUT1, GLUT2, and GLUT4 in hxt^0 yeast cells. Dose response curves for GLUT3 inhibitors in GLUT1 (top row), GLUT2 (middle row), and GLUT4 (bottom row). […] Error bars represent standard deviations from at least three independent measurements. Graphs, data analysis, and IC50 values were generated with GraphPad (www.graphpad.com).
For the compound `Cc1cccnc1OC1CCN(c2cc(N3CCCC3CO)ncn2)CC1` (stereo not drawn) [G3iC], the 50% inhibitory concentration (IC50) came out at 49.4 ± 6.7 µM. The figure for `O=C(Nc1cccc(Cl)c1)c1cccc(NC(=O)c2cccc([N+](=O)[O-])c2)c1` [G3iE, N-{3-[(3-chloroanilino)carbonyl]phenyl}-3-nitrobenzamide] is 22.4 ± 3.7 µM; for `Cc1cc(NC(=O)CCC2Cc3ccccc3NC2=O)nc(-c2ccccc2)n1` (stereo not drawn) [G3iD] it is 17.7 ± 2.3 µM; for `COc1ccccc1-n1c(/C=C/c2ccc(O)cc2)nc2ccc(Br)cc2c1=O` [G3iB, 6-bromo-2-[(E)-2-(4-hydroxyphenyl)ethenyl]-3-(2-methoxyphenyl)quinazolin-4(3H)-one] it is 25 ± 8.6 µM. In the case of `CC(=O)Nc1ccc(S(=O)(=O)Nc2ccc(Nc3cc(N(C)C)nc(C)n3)cc2)cc1` [G3iA, N-(4-{[(4-{[6-(dimethylamino)-2-methylpyrimidin-4-yl]amino}phenyl)amino]sulfonyl}phenyl)acetamide] it was over 50 µM; in that of `Cc1ccccc1CN(Cc1nnc(C(C)(C)C)o1)c1ccc2nc(O)[nH]c2c1` [G3iF], over 50 µM.

The values above are taken from publication PMC8791944, “GLUT3 inhibitor discovery through in silico ligand screening and in vivo validation in eukaryotic expression systems” (Scientific Reports, 2022).
